Data: patent US20230181614A1, “ADMINISTRATION OF CITICOLINE TO IMPROVE COGNITIVE PERFORMANCE, ATTENTIONAL PERFORMANCE, AND MOTOR FUNCTION” (KYOWA HAKKO BIO CO., LTD., priority 2014, published 2023)

System: Healthy subjects, ages 13-18
Assay: General Questionnaire
Assay type: in vivo, human
From the text: Study participants were screened by telephone prior to study enrollment. Healthy subjects, ages 13-18, with no significant medical conditions and no history of co-morbid psychiatric disorder, current Axis I or II diagnosis, or previous participation in a pharmacotherapeutic trial, were selected. Use of any psychotropic medication or any previous head injury resulting in loss of consciousness for 5 or more minutes were used as exclusion criteria. While no participant met criteria for a neuropsychiatric disorder at enrollment, clinical assessments were still completed throughout the study to evaluate changes in mood state. In addition, self-reports of sleep habits, lifestyle, and exercise routines were also administered at baseline as well as at each study visit to assess changes in health habits during study participation. Following the completion of Visit 1 assessment, participants were given their 28-day supply of citicoline (250 mg or 500 mg) or placebo, which was randomly assigned. They were instructed to take one capsule a day every day for the next 28 days. Visit 2 occurred fourteen days after Visit 1. At Visit 2, the remaining study pills were counted and participant dosage calendars were checked to ensure compliance with the protocol. Additional neuropsychological measures and clinical assessments were administered during this visit. Participants returned for Visit 3 fourteen days later, on the 28th day of their study participation. The pill bottle and the dosage calendar were collected from each participant. Urine and blood were again obtained. Participants also participated in similar clinical and neuropsychological testing and clinical measures that were given during visit 1. The General Questionnaire and Exercise and Life Style Questionnaire are self-report questionnaires designed to assess a variety of symptoms, behaviors, and self-perceptions, including mood, complexion, exercise, food, and alcohol habits of each of the participants. The General Questionnaire was administered during each of the three study visits; the Exercise and Life Style Questionnaire was administered during each of the three study visits. The General Questionnaire included five summary categories (Vision, Depression, Attention, Sleep, and Complexion) each of which had multiple individual items. Within and between group analyses are reported below for each of the summary categories.

## C[N+](C)(C)CCOP(=O)(O)OP(=O)([O-])OC[C@H]1O[C@@H](n2ccc(N)nc2=O)[C@H](O)[C@@H]1O [citicoline, Cytidine 5′-diphosphocholine]
250 mg/day, V3 (day 28)
  General Questionnaire Vision Q2, Mean: 2.44
  General Questionnaire Vision Q3, Mean: 1.81
  General Questionnaire Vision Total, Mean: 6.59
500 mg/day
  Attention Total V3-V1 Difference Mean: -5.17
  Complexion Total V3-V1 Difference Mean: -1.42
  Depression Total V3-V1 Difference Mean: -5.21
  Sleep Total V3-V1 Difference Mean: -3.25
  Vision Total V3-V1 Difference Mean: -1.50
500 mg/day, Visit 1
  Attention Q13 V1 Mean: 2.42
  Attention Q14 V1 Mean: 2.21
  Attention Q15 V1 Mean: 2.63
  Attention Q16 V1 Mean: 2.83
  Attention Q17 V1 Mean: 1.96
  Attention Q18 V1 Mean: 2.79
  Attention Q19 V1 Mean: 7.29
  Attention Q20 V1 Mean: 2.54
  Attention Q21 V1 Mean: 3.25
  Attention Q22 V1 Mean: 1.83
  Attention Q23 V1 Mean: 2.92
  Attention Q24 V1 Mean: 2.46
  Attention Total V1 Mean: 35.13
  Complexion Q33 V1 Mean: 2.58
  Complexion Q34 V1 Mean: 1.88
  Complexion Total V1 Mean: 4.46
  Depression Q4 V1 Mean: 1.75
  Depression Q5 V1 Mean: 2.46
  Depression Q6 V1 Mean: 2.21
  Depression Q7 V1 Mean: 3.13
  Depression Q8 V1 Mean: 1.92
  Depression Q9 V1 Mean: 3.04
  Depression Q10 V1 Mean: 2.00
  Depression Q11 V1 Mean: 2.00
  Depression Q12 V1 Mean: 2.04
  Depression Total V1 Mean: 20.54
  Sleep Q25 V1 Mean: 3.54
  Sleep Q26 V1 Mean: 2.54
  Sleep Q27 V1 Mean: 2.00
  Sleep Q28 V1 Mean: 2.96
  Sleep Q29 V1 Mean: 2.00
  Sleep Q30 V1 Mean: 2.04
  Sleep Q31 V1 Mean: 2.33
  Sleep Q32 V1 Mean: 3.54
  Sleep Total V1 Mean: 20.83
  Vision Q1 V1 Mean: 2.75
  Vision Q2 V1 Mean: 2.54
  Vision Q3 V1 Mean: 1.71
  Vision Total V1 Mean: 7.00
500 mg/day, Visit 3
  Attention Q13 V3 Mean: 1.96
  Attention Q14 V3 Mean: 1.83
  Attention Q15 V3 Mean: 1.92
  Attention Q16 V3 Mean: 1.92
  Attention Q17 V3 Mean: 1.75
  Attention Q18 V3 Mean: 1.92
  Attention Q19 V3 Mean: 8.42
  Attention Q20 V3 Mean: 1.92
  Attention Q21 V3 Mean: 2.42
  Attention Q22 V3 Mean: 1.63
  Attention Q23 V3 Mean: 2.13
  Attention Q24 V3 Mean: 2.17
  Attention Total V3 Mean: 29.96
  Complexion Q33 V3 Mean: 1.75
  Complexion Q34 V3 Mean: 1.29
  Complexion Total V3 Mean: 3.04
  Depression Q4 V3 Mean: 1.58
  Depression Q5 V3 Mean: 1.88
  Depression Q6 V3 Mean: 1.67
  Depression Q7 V3 Mean: 2.25
  Depression Q8 V3 Mean: 1.46
  Depression Q9 V3 Mean: 2.00
  Depression Q10 V3 Mean: 1.54
  Depression Q11 V3 Mean: 1.38
  Depression Q12 V3 Mean: 1.58
  Depression Total V3 Mean: 15.33
  Sleep Q25 V3 Mean: 2.50
  Sleep Q26 V3 Mean: 1.71
  Sleep Q27 V3 Mean: 1.83
  Sleep Q28 V3 Mean: 2.29
  Sleep Q29 V3 Mean: 1.96
  Sleep Q30 V3 Mean: 1.96
  Sleep Q31 V3 Mean: 2.21
  Sleep Q32 V3 Mean: 3.13
  Sleep Total V3 Mean: 17.58
  Vision Q1 V3 Mean: 1.92
  Vision Q2 V3 Mean: 2.08
  Vision Q3 V3 Mean: 1.50
  Vision Total V3 Mean: 5.50
